Source: patent US6242173A, “Immunoassays for catalytically-active, serine proteases” (University of Vermont and State Agriculatural College, priority 1992, dated 2001)
Entries after “also recorded” stand apart in the source; their conditions may differ.

How the values were obtained:
bovine Xa = bovine Xa (Bos taurus, UniProt P00743); experiment: Fluorophore-protein ratios by absorbance; format: binding; conditions: isolated labeled protein
Human Xa [1] = molecular target: T1, Human Xa (Homo sapiens, UniProt P00742); experiment: Fluorophore-protein ratios by absorbance; format: binding; conditions: isolated labeled protein
T1 construct: from tissue; host or cells: fresh frozen human plasma
T1 sequence (P00742 235-488 limits assumed): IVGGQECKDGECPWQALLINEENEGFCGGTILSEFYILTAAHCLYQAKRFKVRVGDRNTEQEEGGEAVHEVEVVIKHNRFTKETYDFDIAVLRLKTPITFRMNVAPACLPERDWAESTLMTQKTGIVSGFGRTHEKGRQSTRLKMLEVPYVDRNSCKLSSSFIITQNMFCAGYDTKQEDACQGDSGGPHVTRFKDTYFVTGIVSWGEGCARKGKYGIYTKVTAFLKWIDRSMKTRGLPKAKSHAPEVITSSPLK
T1 sequence (P00742 41-179 partner limits assumed): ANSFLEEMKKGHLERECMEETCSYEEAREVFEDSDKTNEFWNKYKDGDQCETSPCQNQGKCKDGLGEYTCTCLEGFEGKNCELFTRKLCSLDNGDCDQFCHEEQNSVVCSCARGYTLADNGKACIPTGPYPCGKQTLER

thrombin = molecular target: T2, thrombin (Homo sapiens, UniProt P00734); experiment: Blocking of the reaction of thrombin with synthetic substrate S2238; format: biochemical; conditions: solution in 1.0 mM HCl
T2 construct: from tissue; host or cells: fresh frozen human plasma
Description: FPRck.2HCl (Calbiochem) (5.0 mg, […]) was dissolved in methanol (1.0 mL) and treated with 2,6-dansyl chloride (Molecular Probes) (2.6 mg, 9.5 μmoles) in DMF (1.0 mL). The solution was mixed and treated with 4-methylmorpholine (20 μL, 16 μmoles). After 20 minutes at 25° C., the reaction was stopped by addition of 1.0 M HCl (100 μL) and the mixture was applied directly to a SEPHADEX LH-20 column (1×30 cm, in methanol). The elution was followed by fluorescence, A280, Sakaguchi stain and thin layer chromatography. The product appeared as a single fluorescent, Sakaguchi positive spot Rf =0.14 (2:1 chloroform:methanol on Bakerflex silica gel). The pooled sample was evaporated to an oil and taken up in 1.0 mM HCl. […] The solution was lyophilized to an oil which was taken up in 10.0 mM HCl (3.8 mL) and frozen. Final concentration (determined by A360) was 1.0 mM. Yield was 3.8 μmoles or 40%.
Factor Xa: In a one mL cuvette, 22.5 μM S2222 in Hepes/saline pH=7.4 was treated with 1-10 μL of the factor Xa preparation. The mixture was stirred briefly and the absorbance at 405 nm followed in a Cary 219 UV/visible spectrophotometer. The rate was taken for the initial linear phase. Similar methods were used for thrombin (S2238), plasmin (S2251) and tPA (S2238). Hemker, H. C. (1983) in Handbook of Synthetic Substrates: For the Coagulation and Fibrinolytic Systems. Martinus Nijhogg Publishers, Boston.

tissue factor = tissue factor (Homo sapiens, UniProt P13726); experiment: Blocking of tissue factor, tissue factor specific activity; format: biochemical
tissue factor, sequence (P13726 33-295): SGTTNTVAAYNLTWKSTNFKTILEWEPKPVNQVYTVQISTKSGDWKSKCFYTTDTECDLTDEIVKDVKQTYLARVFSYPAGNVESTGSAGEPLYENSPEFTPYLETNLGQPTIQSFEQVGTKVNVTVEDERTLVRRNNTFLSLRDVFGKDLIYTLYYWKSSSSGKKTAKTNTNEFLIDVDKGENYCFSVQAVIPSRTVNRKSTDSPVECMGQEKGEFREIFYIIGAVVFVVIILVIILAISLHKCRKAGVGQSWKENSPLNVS

[2] = system: tissue plasminogen activator (tTPA) (1 and 2 chain); experiment: Screening of protein/BC-PPACK reactions, avidin-biotin-peroxidase blot; format: binding, human; conditions: 10 fold molar excess twice, overnight
tissue plasminogen activator (tTPA) (1 and 2 chain), sequence (P00750 311-562 limits assumed): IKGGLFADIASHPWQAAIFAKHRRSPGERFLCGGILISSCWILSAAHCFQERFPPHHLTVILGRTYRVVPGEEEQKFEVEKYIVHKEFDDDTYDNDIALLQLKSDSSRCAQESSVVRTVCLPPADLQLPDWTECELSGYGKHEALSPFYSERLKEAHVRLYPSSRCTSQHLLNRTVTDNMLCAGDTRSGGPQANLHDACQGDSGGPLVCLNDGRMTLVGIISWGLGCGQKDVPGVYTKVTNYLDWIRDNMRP
Description: (§1) Samples of purified enzymes, zymogens, or enzyme-zymogen mixtures were treated with BC-PPACK as follows: 10-30 μg samples of protein at 0.5 mg/mL in Hepes (20 mM)/NaCl (150 mM) pH=7.4 was reacted with 10 fold molar excess of BC-PPACK for 30 minutes, followed by a second 10 fold aliquot and overnight incubation at room temperature. Samples were then reduced with 2-mercapto-ethanol and prepared for PAGE gel electrophoresis either on 12×12 cm or PhastGel systems. After electrophoresis, the gels were blotted to nitrocellulose using tris/glycine methanol transfer buffer. The nitrocellulose was then blocked with TWEEN reagent, washed with tris/glycine and reacted with avidin-biotin-peroxidase. Development with 4-chloronapthtalene visualized the biotinylated proteins.
Plasminogen was isolated by passing thawed, aprotinin treated plasma over lysine-Sepharose and eluting the bound plasminogen with ε-aminocaproic acid (ECAC) (Castellino, F. J. and Powell, J. R. (1980) Methods Enzymol. 80:365-378). A second pass over the lysine SEPHAROSE gel, followed by separation from aprotinin on SEPHAROSE gel G-100 gave plasminogen which was homogeneous when evaluated by gel electrophoresis. Plasmin was prepared from plasminogen by treatment with 1:200 (weight:weight) of urokinase in Hepes/saline. Tissue plasminogen activator (tPA) was recombinant human tPA (Genentech) and contained both single chain and two chain forms. Urokinase was a generous gift from Dr. David Stump and was two chain.

avidin = avidin (Gallus gallus, UniProt P02701); experiment: Avidin-biotin interaction (fluorescein-avidin, avidin-acrylic, avidin-peroxidase blotting); conditions: free compound, column fractions in 1.0 mM HCl
avidin, sequence (P02701 25-152): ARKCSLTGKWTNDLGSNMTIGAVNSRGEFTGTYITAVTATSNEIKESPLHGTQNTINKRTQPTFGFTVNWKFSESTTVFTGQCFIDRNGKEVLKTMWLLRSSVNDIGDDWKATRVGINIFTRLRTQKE

thrombin (hIIa) = molecular target: T3, thrombin (hIIa) (Homo sapiens, UniProt P00734); experiment: Screening of protein/BC-PPACK reactions, avidin-biotin-peroxidase blot; format: binding; conditions: 10 fold molar excess twice, overnight
T3 construct: from tissue; host or cells: fresh frozen human plasma
Description: as §1

hII = molecular target: T4, hII (Homo sapiens, UniProt P00734); experiment: as above; format: binding; conditions: zymogen; 10 fold molar excess twice, overnight
T4 construct: Except as noted, all proteins were isolated from fresh frozen human plasma; from tissue; host or cells: fresh frozen human plasma
Description: as §1

hPg = molecular target: T5, hPg (Homo sapiens, UniProt P00747); experiment: as above; format: binding; conditions: zymogen; 10 fold molar excess twice, overnight
T5 construct: Plasminogen was isolated by passing thawed, aprotinin treated plasma over lysine-Sepharose; from tissue; host or cells: human plasma (lysine-Sepharose)
T5 sequence (P00747 20-810 limits assumed): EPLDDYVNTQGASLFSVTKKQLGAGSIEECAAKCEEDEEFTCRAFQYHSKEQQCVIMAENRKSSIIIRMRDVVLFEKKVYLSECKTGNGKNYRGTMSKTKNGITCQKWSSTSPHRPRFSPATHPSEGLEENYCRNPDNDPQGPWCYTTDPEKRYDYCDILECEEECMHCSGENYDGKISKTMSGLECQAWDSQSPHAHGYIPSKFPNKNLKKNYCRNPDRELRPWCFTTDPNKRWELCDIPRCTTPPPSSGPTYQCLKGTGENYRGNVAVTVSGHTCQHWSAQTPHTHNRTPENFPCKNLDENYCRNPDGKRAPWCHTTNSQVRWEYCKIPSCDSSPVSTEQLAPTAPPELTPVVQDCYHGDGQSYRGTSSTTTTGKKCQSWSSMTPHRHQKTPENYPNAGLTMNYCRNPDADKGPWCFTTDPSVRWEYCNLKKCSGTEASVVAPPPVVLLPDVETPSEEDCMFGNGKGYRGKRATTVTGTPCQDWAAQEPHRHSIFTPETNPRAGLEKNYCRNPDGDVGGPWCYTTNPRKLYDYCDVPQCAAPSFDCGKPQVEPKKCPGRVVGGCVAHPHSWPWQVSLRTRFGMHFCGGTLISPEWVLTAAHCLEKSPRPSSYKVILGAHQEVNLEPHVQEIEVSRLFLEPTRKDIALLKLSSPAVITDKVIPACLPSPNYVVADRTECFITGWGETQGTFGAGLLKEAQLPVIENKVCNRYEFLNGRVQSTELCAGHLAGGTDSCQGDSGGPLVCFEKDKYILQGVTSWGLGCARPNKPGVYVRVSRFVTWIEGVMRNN
Description: as §1

factor VIIa (hVIIa) = molecular target: T6, factor VIIa (hVIIa) (Homo sapiens, UniProt P08709); experiment: as above; format: binding; conditions: 10 fold molar excess twice, overnight
T6 construct: Human factor VII was converted to VIIa by incubation for 1 hour with a 0.2% (w/w) aliquot of human Xa; from tissue; host or cells: fresh frozen human plasma; VII converted to VIIa with human Xa, or VIIa already present in the isolate
T6 sequence (P08709 213-466 limits assumed): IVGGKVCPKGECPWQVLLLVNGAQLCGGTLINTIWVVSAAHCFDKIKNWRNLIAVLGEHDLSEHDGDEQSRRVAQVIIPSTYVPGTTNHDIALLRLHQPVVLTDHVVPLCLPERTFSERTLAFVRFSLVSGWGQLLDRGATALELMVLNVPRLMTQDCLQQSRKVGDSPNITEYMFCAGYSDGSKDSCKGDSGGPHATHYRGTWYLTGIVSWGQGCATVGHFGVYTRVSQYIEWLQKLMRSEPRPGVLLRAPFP
T6 sequence (P08709 61-212 partner limits assumed): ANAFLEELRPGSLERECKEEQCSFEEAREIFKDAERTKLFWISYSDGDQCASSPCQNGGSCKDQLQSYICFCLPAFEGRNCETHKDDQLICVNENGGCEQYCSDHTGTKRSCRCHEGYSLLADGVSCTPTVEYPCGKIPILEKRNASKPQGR
Description: as §1

plasmin (hPm) = molecular target: T7, plasmin (hPm) (Homo sapiens, UniProt P00747); experiment: as above; format: binding; conditions: 10 fold molar excess twice, overnight
T7 construct: Plasmin was prepared from plasminogen by treatment with 1:200 (weight:weight) of urokinase; from tissue; host or cells: human plasma (lysine-Sepharose)
T7 sequence (P00747 581-810 limits assumed): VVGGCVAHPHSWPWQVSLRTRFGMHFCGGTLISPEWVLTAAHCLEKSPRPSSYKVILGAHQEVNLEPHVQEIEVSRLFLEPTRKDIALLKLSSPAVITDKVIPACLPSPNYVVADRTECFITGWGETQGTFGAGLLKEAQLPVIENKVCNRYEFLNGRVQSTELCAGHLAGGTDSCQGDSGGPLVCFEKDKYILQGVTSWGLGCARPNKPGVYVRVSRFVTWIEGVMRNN
T7 sequence (P00747 97-580 partner limits assumed): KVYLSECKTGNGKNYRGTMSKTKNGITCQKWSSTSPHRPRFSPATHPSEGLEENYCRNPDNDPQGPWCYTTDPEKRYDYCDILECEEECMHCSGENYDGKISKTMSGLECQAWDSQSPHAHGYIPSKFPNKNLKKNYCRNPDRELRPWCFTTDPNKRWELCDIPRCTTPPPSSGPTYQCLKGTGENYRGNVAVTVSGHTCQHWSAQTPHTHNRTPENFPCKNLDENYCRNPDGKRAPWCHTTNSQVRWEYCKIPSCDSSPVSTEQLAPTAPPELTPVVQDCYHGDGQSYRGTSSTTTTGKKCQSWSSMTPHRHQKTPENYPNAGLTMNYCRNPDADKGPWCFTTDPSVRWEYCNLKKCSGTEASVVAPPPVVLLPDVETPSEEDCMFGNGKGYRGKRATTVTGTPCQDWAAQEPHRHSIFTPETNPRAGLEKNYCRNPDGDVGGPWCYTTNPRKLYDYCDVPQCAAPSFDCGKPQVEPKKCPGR
Description: as §1

hX = molecular target: T8, hX (Homo sapiens, UniProt P00742); experiment: as above; format: binding; conditions: zymogen; 10 fold molar excess twice, overnight
T8 construct: Except as noted, all proteins were isolated from fresh frozen human plasma; from tissue; host or cells: fresh frozen human plasma
T8 sequence (P00742 183-488 limits assumed): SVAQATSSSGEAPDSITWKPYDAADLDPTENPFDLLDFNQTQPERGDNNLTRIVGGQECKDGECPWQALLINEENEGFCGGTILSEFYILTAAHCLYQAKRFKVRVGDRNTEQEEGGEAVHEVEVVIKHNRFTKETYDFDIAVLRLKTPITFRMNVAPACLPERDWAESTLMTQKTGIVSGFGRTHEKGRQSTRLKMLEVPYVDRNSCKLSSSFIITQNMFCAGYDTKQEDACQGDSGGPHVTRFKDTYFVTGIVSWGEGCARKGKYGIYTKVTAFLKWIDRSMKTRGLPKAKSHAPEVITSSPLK
T8 sequence (P00742 41-179 partner limits assumed): as the sequence (P00742 41-179 partner limits assumed) above
Description: as §1

factor Xa (hXa) = molecular target: T9, factor Xa (hXa) (Homo sapiens, UniProt P00742); experiment: as above; format: binding; conditions: 10 fold molar excess twice, overnight
T9 construct: from tissue; host or cells: fresh frozen human plasma
T9 sequence (P00742 235-488 limits assumed): as the sequence (P00742 235-488 limits assumed) above
T9 sequence (P00742 41-179 partner limits assumed): as the sequence (P00742 41-179 partner limits assumed) above
Description: as §1

hVII = molecular target: T10, hVII (Homo sapiens, UniProt P08709); experiment: as above; format: binding; conditions: zymogen; 10 fold molar excess twice, overnight
T10 construct: Except as noted, all proteins were isolated from fresh frozen human plasma; from tissue; host or cells: fresh frozen human plasma
T10 sequence (P08709 61-466): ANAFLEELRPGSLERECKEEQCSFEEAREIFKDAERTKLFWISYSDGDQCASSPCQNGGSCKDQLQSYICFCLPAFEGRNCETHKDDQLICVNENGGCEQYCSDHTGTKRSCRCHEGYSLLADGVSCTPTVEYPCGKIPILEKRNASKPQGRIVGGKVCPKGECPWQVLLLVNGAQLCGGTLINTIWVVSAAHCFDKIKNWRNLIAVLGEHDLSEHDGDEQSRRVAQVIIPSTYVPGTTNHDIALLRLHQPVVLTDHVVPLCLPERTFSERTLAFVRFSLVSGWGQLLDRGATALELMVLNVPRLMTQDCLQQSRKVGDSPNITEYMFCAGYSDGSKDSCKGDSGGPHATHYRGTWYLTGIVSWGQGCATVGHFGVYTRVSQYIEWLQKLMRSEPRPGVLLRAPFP
Description: as §1

activated human plasma = experiment: Reaction of activated human plasma with BC-YGR-CK, blot; conditions: thromboplastin and Ca+2 (4 mM) activated plasma, timed aliquots, final CK concentration 1.2 μM
Description: Normal human plasma (200 μL) at 37° C. was activated with thromboplastin (10 μL) and Ca^+2 (4 mM). At timed intervals, 20 uL aliquots were removed and added to 2 μL aliquots of […] BC-YGR-CK (final CK concentration was 1.2 μM). A clot was observed after 122 seconds. The samples were then run on PhastGel electrophoresis and blotted to nitrocellulose.

factor VIIa = molecular target: T11, factor VIIa (Homo sapiens, UniProt P08709); experiment: Removal of active enzyme from zymogen with biotinylated chloromethyl ketone and avidin matrix; conditions: human factor VII containing factor VIIa; listed as BioCap-YGRck
T11 construct: Human factor VII was converted to VIIa by incubation for 1 hour with a 0.2% (w/w) aliquot of human Xa; from tissue; host or cells: fresh frozen human plasma; VII converted to VIIa with human Xa, or VIIa already present in the isolate
T11 sequence (P08709 213-466 limits assumed): T6 sequence (P08709 213-466 limits assumed)
T11 sequence (P08709 61-212 partner limits assumed): T6 sequence (P08709 61-212 partner limits assumed)

Human Xa [3] = molecular target: T1, Human Xa; experiment: Reaction of Human Xa with BC-PPACK, residual activity vs. S2222; format: biochemical

bovine Xa, sequence (P00743 234-492 limits assumed): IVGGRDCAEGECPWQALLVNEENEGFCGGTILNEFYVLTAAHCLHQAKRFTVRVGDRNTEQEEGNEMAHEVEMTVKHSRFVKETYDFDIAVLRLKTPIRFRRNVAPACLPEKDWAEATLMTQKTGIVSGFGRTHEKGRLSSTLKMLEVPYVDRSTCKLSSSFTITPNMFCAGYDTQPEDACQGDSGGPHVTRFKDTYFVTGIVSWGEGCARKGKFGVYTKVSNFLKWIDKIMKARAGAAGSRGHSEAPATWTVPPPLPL
bovine Xa, sequence (P00743 41-180 partner limits assumed): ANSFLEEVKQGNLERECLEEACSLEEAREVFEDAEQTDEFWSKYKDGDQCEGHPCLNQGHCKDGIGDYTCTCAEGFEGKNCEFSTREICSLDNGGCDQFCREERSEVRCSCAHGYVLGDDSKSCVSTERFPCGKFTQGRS

5 (and 6) Carboxylfluoresceinyl-L-glutamylglycyl-L-arginine chloromethyl ketone hydrochloride [Fluoresceinyl-EGRCk]
Fluorophore/Protein (bovine Xa): 1.02 mole/mole
Fluorophore/Protein (Human Xa [1]): 1.06 mole/mole

CN(C)c1ccc2cc(S(=O)(=O)N[C@H](Cc3ccccc3)C(=O)N3CCC[C@H]3C(=O)N[C@@H](CCCNC(=N)N)C(=O)CCl)ccc2c1.Cl [2,6-dansyl-FPRck.HCl, 6-Dimethylaminonapthalene-2-sulfonyl-D-phenylalanyl-L-prolyl-L-arginine chloromethyl ketone hydrochloride]
blocking of reaction of thrombin with S2238 (thrombin): rapidly blocked

NC(N)=NCCC[C@H](NC(=O)[C@@H]1CCCN1C(=O)[C@H](N)Cc1ccccc1)C(=O)CCl [FPRck]
decrease of specific activity of tissue factor (tissue factor; 1.0 mM, 24 hours): 10-20%

O=C(O)c1cc[c]([Hg][Cl])cc1 [p-chloromercuribenzoate]
decrease of specific activity of tissue factor (tissue factor; 100 µM, 2 hours): 10-20%

Biotinyl-D-phenylalanyl-L-prolyl-L-arginine Chloromethyl Ketone [Biotinyl-PPACK]
biotinylated protein on blot [2]: none of the proteins showed a positive blot
enhancement of the fluorescence of fluorescein-avidin (avidin): positive
biotinylated protein on blot (thrombin (hIIa)): none of the proteins showed a positive blot
biotinylated protein on blot (hII): none of the proteins showed a positive blot
biotinylated protein on blot (hPg): none of the proteins showed a positive blot
biotinylated protein on blot (factor VIIa (hVIIa)): none of the proteins showed a positive blot
biotinylated protein on blot (plasmin (hPm)): none of the proteins showed a positive blot
biotinylated protein on blot (hX): none of the proteins showed a positive blot
biotinylated protein on blot (factor Xa (hXa)): none of the proteins showed a positive blot
biotinylated protein on blot (hVII): none of the proteins showed a positive blot

Biotinyl-ε-aminocaproyl-L-tyrosylglycyl-L-arginine chloromethyl ketone [BC-YGR-CK]
biotinylated protein on blot [2]: Identical results
biotinylated protein on blot (thrombin (hIIa)): Identical results
biotinylated protein on blot (hII): Identical results
biotinylated protein on blot (factor VIIa (hVIIa)): Identical results
biotinylated protein on blot (hX): Identical results
biotinylated protein on blot (factor Xa (hXa)): Identical results
biotinylated protein on blot (hVII): Identical results
biotinylated proteins on blot of activated plasma (activated human plasma): several biotinylated proteins
factor VIIa remaining after treatment and avidin matrix, gel analysis (factor VIIa): no factor VIIa remained; also recorded: no contamination with factor VIIa

biotinyl-ε-aminocaproyl-D-phenylalanyl-L-prolyl-L-arginine chloromethyl ketone [BC-PPACK]
relative activity (vs. S2222) (Human Xa [3]; 0.46 equivalents added): 0.62
relative activity (vs. S2222) (Human Xa [3]; 0.92 equivalents added): 0.13
relative activity (vs. S2222) (Human Xa [3]; 1.38 equivalents added): 0.01
relative activity (vs. S2222) (Human Xa [3]; 1.84 equivalents added): 0.00
relative activity (vs. S2222) (Human Xa [3]; 2.76 equivalents added): 0.00
biotinylated protein on blot [2]: positive
biotinylated protein on blot (thrombin (hIIa)): positive
biotinylated protein on blot (hII): No reaction
biotinylated protein on blot (hPg): No reaction
biotinylated protein on blot (factor VIIa (hVIIa)): positive
biotinylated protein on blot (plasmin (hPm)): positive
biotinylated protein on blot (hX): No reaction
biotinylated protein on blot (factor Xa (hXa)): positive
biotinylated protein on blot (hVII): No reaction
